Source: US20220305121A1, “N-ARYL SULFONAMIDE DERIVATIVES AS VACCINE ADJUVANT” (The Regents of the University of California, priority 2019, published 2022)
“Also recorded” adds a separate entry of the source.

Columns and labels:
Format in all cases: cell-based
NF-κB and ISRE = NF-κB and ISRE reporter assays (primary screens), statements in words for both assays; conditions: with LPS or IFN-α as primary stimulus; compared to compound 1
Procedure: THP1-Blue™ NF-κB cells were plated in 96-well plates at 10^5 cells/well in 100 μl RPMI supplemented with 10% fetal bovine serum (FBS, Omega Scientific, Inc., Tarzana, Calif.), 100 U/mL penicillin, 100 μg/ml streptomycin (Thermo Fisher Scientific) and Normocin (Invivogen). LPS was prepared in assay medium at a concentration of 20 μg/mL. Tested compounds were dissolved in DMSO at 1 mM as a stock solution and were further diluted in the LPS solution to a final concentration of 10 μM. 100 μL of this solution was then transferred to the plated cells to obtain a final concentration of LPS at 10 μg/mL and compound at 5 μM ([…]). The culture supernatants were harvested after a 20 hour incubation period, SEAP activity in the culture supernatants was determined by a colorimetric assay using QuantiBlue (Invivogen). Plate absorbance was read at 630 nm using a Tecan Infinite M200 plate reader (Männedorf, Switzerland). The SEAP concentration was directly proportional to NF-κB activity, which was 2-point normalized to yield activity of compound 1+LPS as 200% and activity for LPS as 100%.
ISRE-bla THP-1 cells were plated in 96-well plates at 5×10^4 cells/well in 50 μl RPMI supplemented with 10% dialyzed FBS (Atlanta Biologicals, Inc., GA), 0.1 mM nonessential amino acids, 1 mM sodium pyruvate, 100 U/mL penicillin and 100 μg/ml streptomycin. Type I IFN-α (R&D Systems, #11200-2) solution was prepared in assay medium at a concentration of 200 U/mL Tested compounds were dissolved in DMSO at 1 mM and were further diluted in the IFN-α solution to a final concentration of 10 μM. 50 μL of this solution was then transferred to the plated cells to obtain a final concentration of IFN-α at 100 U/mL and compound at 5 μM ([…]), The cells were incubated for 16 hours, after which 20 μL of 6×LiveBLAzer™ FRET B/G Substrate (CCF4-AM) mixture (prepared according to the manufacturer's instructions) was added to each well, Plates were incubated at room temperature in the dark for 3 hours. Fluorescence was measured on a Tecan Infinite M200 plate reader at an excitation wavelength of 405 nm, and emission wavelengths of 465 nm and 535 nm. Background values (cell free wells at the same fluorescence wavelength) were subtracted from the raw fluorescence intensity values and the emission ratios were calculated as the ratio of background subtracted fluorescence intensities at 465 nm to background subtracted fluorescence intensities at 535 nm. The ISRE activity values for these compounds were 2-point normalized to yield activity of compound 1+IFN-α as 200% and activity for IFN-α as 100%.
Measurement of NF-κB Activation Using THP1-Blue NF-κB Cells. THP1-Blue NF-κB cells were plated in 96-well plates at 10^5 cells/well in 100 μL of RPMI supplemented with 10% fetal bovine serum (FBS, Omega Scientific, Inc., Tarzana, Calif.), 100 U/mL penicillin, 100 μg/mL streptomycin (Thermo Fisher Scientific), and Normocin (Invivogen). LPS was prepared in assay medium at a concentration of 20 μg/mL. Tested compounds were dissolved in DMSO at 1 mM as a stock solution and were further diluted in the LPS solution to a final concentration of 10 μM. 100 μL of this solution was then transferred to the plated cells to obtain a final concentration of LPS at 10 μg/mL and compound at 5 μM ([…]). The culture supernatants were harvested after a 20 hours incubation period. SEAP activity in the culture supernatants was determined by a colorimetric assay using QuantiBlue (Invivogen). Plate absorbance was read at 630 nm using a Tecan Infinite M200 plate reader (Mannedorf, Switzerland). The SEAP concentration was directly proportional to NF-κB activity, which was two-point normalized to yield activity of compound 1+LPS as 200% and activity for LPS as 100%.
Measurement of ISRE Activity in ISRE-bla THP-1 Cells. […]

THP-1 cells = test: Cell viability assay (MTT); conditions: for MTT % Viability: compound 5 μM, 18 hours incubation, normalized to DMSO as 100%, mean
Procedure, shortened: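 Cells at 10^5/well in RPMI with 10% FBS were exposed to compound at 5 μM final (0.05% DMSO) for 18 h. MTT (0.5 mg/mL) then added for 4-6 h, cells lysed overnight in SDS/HCl, absorbance read at 570 nm against 650 nm reference.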

ISRE = test: Measurement of ISRE activity in ISRE-bla THP-1 cells (FRET, IFN-α as primary stimulus); conditions: for activity at 5 µM: Homo sapiens, THP-1, read-out: ISRE % Activation; for activity at 5 µM / ISRE % Activation: compound 5 μM + IFN-α 100 U/mL, 16 hours, two point normalized: compound 1 + IFN-α = 200%, IFN-α = 100%, mean; for ISRE activity (in words): with IFN-α
Procedure, shortened: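 Cells at 5×10^4/well in RPMI with 10% dialyzed FBS, treated with compound at 5 μM (0.05% DMSO) plus IFN-α at 100 U/mL (final) for 16 h. CCF4-AM substrate added for 3 h at room temperature. Background-subtracted 465/535 nm emission ratio, 2-point normalized: IFN-α alone 100%, compound 1+IFN-α 200%.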

NF-κB = test: Measurement of NF-κB activation using THP1-Blue NF-κB cells (SEAP reporter, LPS as primary stimulus); conditions: for activity at 5 µM / NF-κB % Activation: compound 5 μM + LPS, 20 hour incubation, two point normalized: compound 1 + LPS = 200%, LPS = 100%, mean; for NF-κB activity (in words): with LPS
Procedure, shortened: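 THP1-Blue NF-κB cells (10^5/well, RPMI + 10% FBS) were co-treated with LPS 10 μg/mL and compound 5 μM (final, […]) for 20 h. Supernatant SEAP was read by QuantiBlue colorimetry at 630 nm. Two-point normalization set LPS alone to 100% and compound 1+LPS to 200%.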

Molecule | activity in NF-κB and ISRE assays (in words) (NF-κB and ISRE) | MTT % Viability (THP-1 cells) [%] | activity at 5 µM (ISRE) [%] | ISRE activity (in words) (ISRE) | activity at 5 µM (NF-κB) [%] | NF-κB activity (in words) (NF-κB) | ISRE % Activation (ISRE) [%] | NF-κB % Activation (NF-κB) [%] | toxicity in MTT assays (in words) (THP-1 cells; 5 μM)
CCOc1ccc(S(=O)(=O)N(c2cc(OC)c(Cl)cc2OC)C(C)C)cc1 [Compound 40, N-(4-chloro-2,5-dimethoxyphenyl)-4-ethoxy-N-isopropylbenzenesulfonamide] | inactive | 103.2 | 169 | retaining ISRE activity | 76 | eliminated the NF-κB activity; also recorded: loss of NF-κB activity |  |  | 
CCOc1ccc(S(=O)(=O)Nc2cc(OC)c(Cl)cc2OC)cc1Br [Compound 25, 3-Bromo-N-(4-chloro-2,5-dimethoxyphenyl)-4-ethoxybenzenesulfonamide] | inactive | 85.0 | 101 |  | 87 |  |  |  | 
COc1cc(NS(=O)(=O)c2ccc(Oc3ccccc3)cc2)c(OC)cc1Cl [Compound 22, N-(4-chloro-2,5-dimethoxyphenyl)-4-phenoxybenzenesulfonamide] | inactive | 91.3 | 95 |  | 98 |  |  |  | 
CCNC(=O)CCCN(c1cc(OC)c(Cl)cc1OC)S(=O)(=O)c1ccc(OCC)cc1 [Compound 54, 4-((N-(4-chloro-2,5-dimethoxyphenyl)-4-ethoxyphenyl)sulfonamido)-N-ethylbutanamide] | retained activity | 78.2 |  | reduction in ISRE activity |  | retaining the NF-κB activity | 137 | 206 | 
CCOc1ccc(S(=O)(=O)N(CCc2ccccc2)c2cc(OC)c(Cl)cc2OC)cc1 [Compound 47, N-(4-chloro-2,5-dimethoxyphenyl)-4-ethoxy-N-phenethylbenzenesulfonamide] | potent analogs | 44 | 141 |  | 131 |  |  |  | somewhat higher toxicity
CCOc1ccc(S(=O)(=O)N(CCCNC(=O)OC(C)(C)C)c2cc(OC)c(Cl)cc2OC)cc1 [Compound 52, tert-Butyl (3-((N-(4-Chloro-2,5-dimethoxyphenyl)-4-ethoxyphenyl)sulfonamido)propyl)carbamate] | reduction in activity | 75.6 |  |  |  |  | 140 | 134 | 
COc1cc(NS(=O)(=O)c2ccc(C(N)=O)cc2)c(OC)cc1Cl [Compound 27, 4-(N-(4-chloro-2,5-dimethoxyphenyl)sulfamoyl)benzamide] | lost activity | 91.0 | 94 |  | 103 |  |  |  | 
CCOc1ccc(S(=O)(=O)Nc2ccc(Cl)cc2OC)cc1 [Compound 5, N-(4-chloro-2-methoxyphenyl)-4-ethoxybenzenesulfonamide] | complete loss of activity; also recorded: significant loss of activity | 78.3 | 109 |  | 141 |  |  |  | 
CCOc1ccc(S(=O)(=O)Nc2ccc(Cl)c(OC)c2)cc1 [Compound 4, N-(4-chloro-3-methoxyphenyl)-4-ethoxybenzenesulfonamide] | complete loss of activity; also recorded: significant loss of activity | 83.7 | 99 |  | 126 |  |  |  | 
CCOc1ccc(S(=O)(=O)N(Cc2ccccc2)c2cc(OC)c(Cl)cc2OC)cc1 [Compound 46, N-benzyl-N-(4-chloro-2,5-dimethoxyphenyl)-4-ethoxybenzenesulfonamide] | potent analogs | 71.7 | 159 |  | 181 |  |  |  | 
CCOC(=O)c1ccc(S(=O)(=O)Nc2cc(OC)c(Cl)cc2OC)cc1 [Compound 29, Ethyl 4-(N-(4-chloro-2,5-dimethoxyphenyl)sulfamoyl)benzoate] | retained partial activity | 70.8 | 169 |  | 189 |  |  |  | 
N-(9-(2-carboxy-44(34(N-(4-chloro-2,5-dimethoxyphenyl)-4-ethoxyphenyl)sulfonamido)propyl)carbamoyl)phenyl)-6-(diethylamino)-3H-xanthen-3-ylidene)-N-ethylethanaminium [Compound 57] | reduced activity compared to compound 1 | 76.9 |  |  |  |  | 123 | 111 | 
C#CCN(c1cc(OC)c(N=[N+]=[N-])cc1OC)S(=O)(=O)c1ccc(OCC)cc1 [Compound 62, N-(4-azido-2,5-dimethoxyphenyl)-4-ethoxy-N-(prop-2-yn-1-yl) benzenesulfonamide] | very potent | 73.4 |  |  |  |  | 182 | 217 | 
COc1cc(NS(=O)(=O)c2ccccc2OC)c(OC)cc1Cl [Compound 24, N-(4-chloro-2,5-dimethoxyphenyl)-2-methoxybenzenesulfonamide] | none of these molecules were active | 92.1 | 101 |  | 96 |  |  |  | 
CCOc1ccc(S(=O)(=O)N(CCCNC(=O)CCCC[C@H]2SC[C@H]3NC(=O)N[C@H]32)c2cc(OC)c(N=[N+]=[N-])cc2OC)cc1 [Compound 64, N-(3-((N-(4-azido-2,5-dimethoxyphenyl)-4-ethoxyphenyl)sulfonamido)propyl)-5-((3aR,4R,6aS)-2-oxohexahydro-1H-thieno[3,4-d]imidazol-4-yl) pentanamide] | relatively weak activity | 73.8 |  |  |  |  | 140 | 162 | 
